Results as given in ChEMBL document CHEMBL4414598, “Trifluorinated Pyrimidine-Based A2B Antagonists: Optimization and Evidence of Stereospecific Recognition” (J Med Chem, 2019).

What was measured:
[1] = biological target: Adenosine receptor A2a (Homo sapiens, UniProt P29274); experiment: Displacement of [3H]ZM241385 from human recombinant A2A receptor expressed in human HeLa cell membranes at 1 uM incubated for 30 mins by radioligand binding competition assay relative to control
[2] = biological target: T1, Adenosine receptor A1 (Homo sapiens) (UniProt P30542); experiment: Displacement of [3H]DPCPX from human recombinant A1 receptor expressed in CHOA1 cell membranes at 1 uM incubated for 60 mins by radioligand binding competition assay relative to control
T1 sequence (whole entry): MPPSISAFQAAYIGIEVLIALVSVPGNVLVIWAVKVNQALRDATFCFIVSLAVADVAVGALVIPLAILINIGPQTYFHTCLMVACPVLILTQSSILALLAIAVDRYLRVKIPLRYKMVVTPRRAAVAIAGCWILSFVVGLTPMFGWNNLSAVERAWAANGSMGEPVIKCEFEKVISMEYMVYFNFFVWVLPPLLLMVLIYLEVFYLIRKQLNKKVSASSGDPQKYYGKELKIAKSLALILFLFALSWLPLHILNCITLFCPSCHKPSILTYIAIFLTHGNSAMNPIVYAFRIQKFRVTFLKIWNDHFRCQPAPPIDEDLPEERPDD

[3] = biological target: T2, Adenosine receptor A2b (Homo sapiens, UniProt P29275); experiment: Displacement of [3H]DPCPX from human recombinant A2B receptor expressed in human HEK293 cell membranes incubated for 30 mins by radioligand binding competition assay
T2 sequence (P29275 whole entry): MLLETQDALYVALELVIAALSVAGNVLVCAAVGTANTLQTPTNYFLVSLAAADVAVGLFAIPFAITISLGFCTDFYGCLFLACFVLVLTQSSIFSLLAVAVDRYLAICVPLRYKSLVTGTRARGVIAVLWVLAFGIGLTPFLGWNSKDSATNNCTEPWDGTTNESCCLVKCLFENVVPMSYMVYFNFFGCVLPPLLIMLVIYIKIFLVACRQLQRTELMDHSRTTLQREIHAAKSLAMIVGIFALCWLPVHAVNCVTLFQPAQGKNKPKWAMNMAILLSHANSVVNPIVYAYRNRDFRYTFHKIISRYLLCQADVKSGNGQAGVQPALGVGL

[4] = biological target: T3, Adenosine receptor A3 (Homo sapiens) (UniProt P0DMS8); experiment: Displacement of [3H]NECA from human A3 receptor expressed in human HeLa cell membranes at 1 uM incubated for 180 mins by radioligand binding competition assay relative to control
T3 sequence (whole entry): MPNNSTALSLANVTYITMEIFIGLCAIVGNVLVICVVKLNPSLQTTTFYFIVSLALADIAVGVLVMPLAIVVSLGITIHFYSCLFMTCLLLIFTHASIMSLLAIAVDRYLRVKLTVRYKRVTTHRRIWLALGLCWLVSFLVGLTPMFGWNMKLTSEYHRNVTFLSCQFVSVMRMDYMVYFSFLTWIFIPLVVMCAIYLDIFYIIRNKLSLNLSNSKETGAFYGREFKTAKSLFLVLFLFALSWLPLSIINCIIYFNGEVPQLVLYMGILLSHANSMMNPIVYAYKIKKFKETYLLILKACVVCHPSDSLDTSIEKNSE

[5] = biological target: T4, Adenosine receptor A2b (Homo sapiens) (UniProt P29275); experiment: Displacement of [3H]DPCPX from human recombinant A2B receptor expressed in human HEK293 cell membranes at 1 uM incubated for 30 mins by radioligand binding competition assay relative to control
T4 sequence (whole entry): T2 sequence (P29275 whole entry)

Adenosine receptor A2a, sequence (P29274 whole entry): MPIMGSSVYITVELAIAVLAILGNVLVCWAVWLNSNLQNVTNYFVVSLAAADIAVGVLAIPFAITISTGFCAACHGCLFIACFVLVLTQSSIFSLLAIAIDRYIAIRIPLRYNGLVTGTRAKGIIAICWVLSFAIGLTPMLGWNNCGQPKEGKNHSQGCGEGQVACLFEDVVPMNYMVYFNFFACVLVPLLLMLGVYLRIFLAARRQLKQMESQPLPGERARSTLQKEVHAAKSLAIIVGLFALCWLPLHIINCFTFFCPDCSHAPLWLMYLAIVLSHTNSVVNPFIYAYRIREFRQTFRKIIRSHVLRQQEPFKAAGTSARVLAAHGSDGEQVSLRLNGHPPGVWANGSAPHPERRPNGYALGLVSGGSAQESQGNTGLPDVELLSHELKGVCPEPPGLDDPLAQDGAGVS

SMILES	inhibition [1] [%]	inhibition [2] [%]	Ki [3] [nM]	inhibition [4] [%]	inhibition [5] [%]
CC1=C(C(=O)OC(C)C(F)(F)F)C(c2ccco2)NC(=O)N1 (stereo in doubt; 14i-D1)	–	–	61.5	–	–
CC(C)OC(=O)C1=C(C(F)(F)F)Nc2nc3ccccc3n2C1c1ccco1 (racemic)	10	3	–	5	39
CC1=C(C(=O)OCC(F)(F)F)C(c2ccsc2)n2c(nc3ccccc32)N1 (racemic)	17	7	–	2	30
CC1=C(C(=O)O[C@H](C)C(F)(F)F)[C@H](c2ccco2)n2c(nc3ccccc32)N1	2	2	–	1	18
CC1=C(C(=O)O[C@@H](C)C(F)(F)F)[C@H](c2ccco2)n2c(nc3ccccc32)N1	19	7	–	9	35
CC(C)OC(=O)C1=C(C(F)(F)F)Nc2nc3ccccc3n2C1c1ccsc1 (racemic)	3	10	–	2	48
CC1=C(C(=O)OC(C)C(F)(F)F)C(c2cccs2)n2c(nc3ccccc32)N1 (racemic)	2	34	–	4	27
CC1=C(C(=O)OC(C(F)(F)F)C(F)(F)F)C(c2ccoc2)NC(=O)N1 (racemic)	22	7	–	1	2
CC1=C(C(=O)OC(C)C(F)(F)F)C(c2ccoc2)NC(=O)N1 (stereo in doubt; 14j-D1)	–	–	234	–	–
CC1=C(C(=O)OCC(F)(F)F)C(c2ccsc2)NC(=O)N1 (racemic)	1	2	–	1	24
CC1=C(C(=O)OC(C)C(F)(F)F)C(c2ccco2)NC(=O)N1 (stereo in doubt; 14i-D2)	–	–	303	–	–

Other lines, results leading:

inhibition [1] [%]	inhibition [2] [%]	Ki [3] [nM]	inhibition [4] [%]	inhibition [5] [%]	SMILES
9	13	588	1	–	CC1=C(C(=O)OCC(F)(F)F)C(c2ccoc2)NC(=O)N1 (racemic)
–	–	643	–	–	CC1=C(C(=O)OC(C)C(F)(F)F)C(c2ccsc2)NC(=O)N1 (stereo in doubt; 14l-D1)
13	8	–	7	19	CC(C)OC(=O)C1=C(C(F)(F)F)NC(=O)NC1c1cccs1 (racemic)
1	16	–	3	1	CC1=C(C(=O)OC(C)C(F)(F)F)C(c2cccs2)NC(=O)N1 (stereo in doubt; 14k-D2)
15	3	–	1	1	CC1=C(C(=O)OC(C(F)(F)F)C(F)(F)F)C(c2ccsc2)n2c(nc3ccccc32)N1 (racemic)
1	6	–	2	1	CC1=C(C(=O)OC(C(F)(F)F)C(F)(F)F)C(c2ccco2)NC(=O)N1 (racemic)
1	1	–	5	23	CC1=C(C(=O)OC(C)C(F)(F)F)C(c2ccoc2)NC(=O)N1 (stereo in doubt; 14j-D2)
1	17	–	8	1	CC1=C(C(=O)OC(C(F)(F)F)C(F)(F)F)C(c2ccsc2)NC(=O)N1 (racemic)
2	3	–	1	1	CC1=C(C(=O)OC(C)C(F)(F)F)C(c2ccsc2)NC(=O)N1 (stereo in doubt; 14l-D2)
2	16	–	24	16	CC1=C(C(=O)OC(C(F)(F)F)C(F)(F)F)C(c2ccco2)n2c(nc3ccccc32)N1 (racemic)
3	3	–	1	1	CC1=C(C(=O)OCC(F)(F)F)C(c2cccs2)NC(=O)N1 (racemic)
